From ChEMBL document CHEMBL4359836, “Synthesis and Biological Assessment of Pyrrolobenzoxazine Scaffold as a Potent Antioxidant” (J Med Chem, 2019)
Activity calls are given as the source filed them. The rule behind the calls is not given here.

What was measured:
Capra hircus [1] = species: Capra hircus; experiment: Effect on ICDH in goat cardiac mitochondria assessed as reversal of CuCl2/ascorbic acid induced reduction in Vmax at 66 uM using isocitrate as substrate after 1 hr by Lineweaver-Burk double reciprocal plot analysis; details: Heart
Mitochondria [2] = experiment: Antioxidant activity in goat cardiac mitochondria assessed as inhibition of CuCl2/ascorbic acid-induced manganese superoxide dismutase at 66 uM after 1 hr by pyrogallol autoxidation method relative to control; assay type: functional, subcellular; details: Capra hircus, Heart, Mitochrondria
[3] = Reducing power of the compound assessed as reducing Fe3+ power at 80 uM using K3Fe(CN)6 in pH 6.6 phosphate buffer after 20 mins by spectrophotometric analysis
Mitochondria [4] = experiment: Antioxidant activity in goat cardiac mitochondria assessed as reversal of CuCl2/ascorbic acid-induced reduction in SDH level at 66 uM using succinate as substrate after 1 hr by spectrophotometric analysis relative to control; assay type: functional, subcellular; details: Capra hircus, Heart, Mitochrondria
Mitochondria [5] = experiment: Antioxidant activity in goat cardiac mitochondria assessed as reversal of CuCl2/ascorbic acid-induced reduction in GSH level at 66 uM after 1 hr by DTNB reagent based method relative to control; assay type: functional, subcellular; details: Capra hircus, Heart, Mitochrondria
[6] = Binding affinity to Cu2+ assessed as binding constant K1 at 66 uM in presence of ascorbic acid/CuCl2 by isothermal titration calorimetry
Mitochondria [7] = experiment: Antioxidant activity in goat cardiac mitochondria assessed as inhibition of CuCl2/ascorbic acid-induced protein carbonyl content at 8.25 uM after 1 hr by DNPH assay relative to control; assay type: functional, subcellular; details: Capra hircus, Heart, Mitochrondria
Mitochondria [8] = experiment: Protective activity against CuCl2/ascorbic acid-induced apoptotic alteration in goat cardiac mitochondria assessed as reversal of CuCl2/ascorbic acid-induced reduction in cytochrome c oxidase activity at 8.25 uM and measured at 10 secs time interval for 90 secs by spectrophotometric analysis (reference value: 72.41%); assay type: functional, subcellular; parameters: scale not given: the % may be the effect or the level left; details: Capra hircus, Heart, Mitochrondria
Mitochondria [9] = experiment: Protective activity against CuCl2/ascorbic acid-induced apoptotic alteration in goat cardiac mitochondria assessed as reversal of CuCl2/ascorbic acid-induced reduction in cytochrome c oxidase activity at 66 uM measured at 10 secs time interval for 90 secs by spectrophotometric analysis relative to control; assay type: functional, subcellular; details: Capra hircus, Heart, Mitochrondria
[10] = Effect on alpha-KGDH levels in goat cardiac mitochondria at 8.25 to 66 uM using alpha-ketoglutarate as substrate after 1 hr; assay type: ADME, subcellular, Capra hircus, Heart, Mitochrondria
[11] = Effect on GSH level in goat cardiac mitochondria at 8.25 to 66 uM after 1 hr by DTNB reagent based method; assay type: ADME, subcellular, Capra hircus, Heart, Mitochrondria
Mitochondria [12] = experiment: Antioxidant activity in goat cardiac mitochondria assessed as reversal of CuCl2/ascorbic acid-induced reduction in PDH level at 8.25 uM using sodium pyruvate as substrate after 1 hr by spectrophotometric analysis (reference value: 66.25%); assay type: functional, subcellular; parameters: scale not given: the % may be the effect or the level left; details: Capra hircus, Heart, Mitochrondria
[13] = Inhibition of ICDH in goat cardiac mitochondria assessed as effect on Vmax at 66 uM using isocitrate as substrate after 1 hr by Lineweaver-Burk double reciprocal plot analysis; parameters: species or system Capra hircus, Heart
[14] = Binding affinity to Cu2+ assessed as binding constant K2 at 66 uM in presence of CuCl2 by isothermal titration calorimetry
Mitochondria [15] = experiment: Antioxidant activity in goat cardiac mitochondria assessed as inhibition of CuCl2/ascorbic acid-induced lipid peroxidation at 33 uM after 1 hr by thiobarbituric acid based UV-Visible spectrophotometric method (reference value: 60.11%); assay type: functional, subcellular; details: Capra hircus, Heart, Mitochrondria
[16] = Inhibition of alpha-ketoglutarate dehydrogenase in goat cardiac mitochondria assessed as effect on Vmax at 66 uM using alpha-ketoglutarate as substrate after 1 hr by Lineweaver-Burk double reciprocal plot analysis; parameters: species or system Capra hircus, Heart
[17] = Binding affinity to Cu2+ assessed as binding constant K1 at 66 uM in presence of CuCl2 by isothermal titration calorimetry
[18] = Binding affinity to Cu2+/ascorbate assessed as decrease in heat change at 66 uM in presence of ascorbic acid/CuCl2 by isothermal titration calorimetry
[19] = Binding affinity to Cu2+ assessed as binding constant K2 at 66 uM in presence of ascorbic acid/CuCl2 by isothermal titration calorimetry
Mitochondria [20] = experiment: Protective activity against CuCl2/ascorbic acid-induced apoptotic alteration in goat cardiac mitochondria assessed as reversal of CuCl2/ascorbic acid-induced reduction in cytochrome c oxidoreductase activity incubated for 1 hr and measured at 10 secs time interval for 90 secs by spectrophotometric analysis; assay type: functional, subcellular; details: Capra hircus; Heart; Mitochrondria
[21] = Inhibition of PDH in goat cardiac mitochondria assessed as effect on Vmax at 66 uM using sodium pyruvate as substrate after 1 hr by Lineweaver-Burk double reciprocal plot analysis; parameters: species or system Capra hircus, Heart
Capra hircus [22] = species: Capra hircus; experiment: Effect on succinate dehydrogenase in goat cardiac mitochondria assessed as reversal of CuCl2/ascorbic acid induced reduction in Km at 66 uM using succinate as substrate after 1 hr by Lineweaver-Burk double reciprocal plot analysis; details: Heart
[23] = Antioxidant activity in pH 7.4 potassium phosphate buffer assessed as CuCl2/ascorbic acid induced hydroxyl radical scavenging activity by measuring trolox equivalent antioxidant capacity by measuring IC50 Trolox/IC50 test compound ratio in presence of deoxyribose by thiobarbituric acid based absorbance analysis; assay type: functional
Mitochondria [24] = experiment: Antioxidant activity in goat cardiac mitochondria assessed as reversal of CuCl2/ascorbic acid-induced reduction in PDH level at 66 uM using sodium pyruvate as substrate after 1 hr by spectrophotometric analysis relative to control; assay type: functional, subcellular; details: Capra hircus, Heart, Mitochrondria
Mitochondria [25] = experiment: Antioxidant activity in goat cardiac mitochondria assessed as reversal of CuCl2/ascorbic acid-induced reduction in ICDH level at 66 uM using isocitrate as substrate after 1 hr relative to control; assay type: functional, subcellular; details: Capra hircus, Heart, Mitochrondria
Mitochondria [26] = experiment: Protective activity in goat cardiac mitochondria assessed as inhibition of CuCl2/ascorbic acid-induced convoluted membranes at 66 uM incubated for 1 hr by scanning electron microscopy; assay type: functional, subcellular; details: Capra hircus, Heart, Mitochrondria
Mitochondria [27] = experiment: Protective activity against CuCl2/ascorbic acid-induced apoptotic alteration in goat cardiac mitochondria assessed as reversal of CuCl2/ascorbic acid-induced reduction in cytochrome c oxidase activity at 33 uM incubated for 1 hr and measured at 10 secs time interval for 90 secs by spectrophotometric analysis relative to control; assay type: functional, subcellular; details: Capra hircus, Heart, Mitochrondria
Capra hircus [28] = species: Capra hircus; experiment: Effect on ICDH in goat cardiac mitochondria assessed as reversal of CuCl2/ascorbic acid induced reduction in Km at 66 uM using isocitrate as substrate after 1 hr by Lineweaver-Burk double reciprocal plot analysis; details: Heart
Mitochondria [29] = experiment: Antioxidant activity in goat cardiac mitochondria assessed as reversal of CuCl2/ascorbic acid-induced reduction in ICDH level at 16.5 uM using isocitrate as substrate after 1 hr (reference value: 65.58%); assay type: functional, subcellular; parameters: scale not given: the % may be the effect or the level left; details: Capra hircus, Heart, Mitochrondria
Mitochondria [30] = experiment: Antioxidant activity in goat cardiac mitochondria assessed as inhibition of CuCl2/ascorbic acid-induced manganese superoxide dismutase at 8.25 uM after 1 hr by pyrogallol autoxidation method relative to control; assay type: functional, subcellular; details: Capra hircus, Heart, Mitochrondria
Mitochondria [31] = experiment: Antioxidant activity in goat cardiac mitochondria assessed as reversal of CuCl2/ascorbic acid-induced reduction in GSH level at 8.25 uM after 1 hr by DTNB reagent based method (reference value: 75.89%); assay type: functional, subcellular; parameters: scale not given: the % may be the effect or the level left; details: Capra hircus, Heart, Mitochrondria
Capra hircus [32] = species: Capra hircus; experiment: Effect on succinate dehydrogenase in goat cardiac mitochondria assessed as reversal of CuCl2/ascorbic acid induced reduction in Vmax at 66 uM using succinate as substrate after 1 hr by Lineweaver-Burk double reciprocal plot analysis; details: Heart

For `CCOC(=O)c1c(-c2ccc(O)c(OC)c2)cn2c1c(=O)oc1ccccc12`, the Activity (Capra hircus [1]) was “Active”, the inhibition (Mitochondria [2]) was 60.9% and the Activity [3] was “Dose-dependent effect”. It also gave a fold change (FC) (Mitochondria [4]) of 5, a fold change (FC) (Mitochondria [5]) of 6.3 and a K [6] of 8.7 ×10⁴ /M. The inhibition (Mitochondria [7]) was 21.9%, the Activity (Mitochondria [8]) was 56.2% and the fold change (FC) (Mitochondria [9]) was 5.12. The Activity [10] was “Non-Toxic”, the Activity [11] was “Non-Toxic” and the Activity (Mitochondria [12]) was 49.3%. The “inhibition (INH)” value [13] was “Not Active”, the K [14] was 9.55 ×10⁴ /M and the inhibition (Mitochondria [15]) was 28.2%. The “inhibition (INH)” value [16] was “Not Active”, the K [17] was 8.37 ×10⁴ /M and the Activity [18] was “Active”. The K [19] was 5.07 ×10³ /M, the Activity (Mitochondria [20]) was “Dose-dependent effect” and the “inhibition (INH)” value [21] was “Not Active”. The Activity (Capra hircus [22]) was “Active”, the Ratio IC50 [23] was 0.9 and the fold change (FC) (Mitochondria [24]) was 3.82. For the same compound, the fold change (FC) (Mitochondria [25]) was 3.52, the Activity (Mitochondria [26]) was “Active” and the fold change (FC) (Mitochondria [27]) was 3.5. The Activity (Capra hircus [28]) was “Active”, the Activity (Mitochondria [29]) was 75.5% and the inhibition (Mitochondria [30]) was 25.7%. The Activity (Mitochondria [31]) was 79.6% and the Activity (Capra hircus [32]) was “Active”.
